Reference: US20260055117A1, “SUBSTITUTED PYRIDONE GPR84 ANTAGONISTS AND USES THEREOF” (Liminal BioSciences Limited, priority 2022, published 2026)

Target: T1, human GPR84 receptor (Homo sapiens, UniProt Q9NQS5)
T1 construct: host or cells: HEK293, transiently transfected
Assay: Gαi biosensor BRET assay (GPR84 antagonism vs agonist ZQ-16)
Type: cell-based
Settings: HEK293 cells, 200 nmol/L agonist ZQ-16; for inhibition at 10 µM: tested at 10 μM (concentration code D); for IC50: Gαi biosensor BRET assay; for inhibition at 2 µM: tested at 2 μM (concentration code A)
Text: Background—The following assays can be used for determination of GPR84 activation in living HEK293 cells. The Gai BRET biosensor (Gagnon et al., 2018; Gales et al., 2006. Nat Struct Mol Biol. 13, 778-86; Saulieres et al., 2012. Nat Chem Biol. 8, 622-30) allows to directly monitor GPR84-mediated activation of Gai. The Gai biosensor consists of a Rluc8-tagged Gai2 subunit, a GFP10-tagged Gy2 subunit, and an untagged GB1. Agonist stimulation and GPR84 activation triggers a physical separation between the RLuc8-Gai donor and the GFP10-Gy2 acceptor, resulting in a decrease in BRET signal whose amplitude is correlated to ligand efficacy (Gales et al., 2006). Moreover, signaling functions of GPCRs are tightly regulated by endocytosis, the targeting of receptors to endosomes and their sorting to lysosomes or recycling to the plasma membrane. The early endosomes (EEs) trafficking assay (Namkung et al., 2016. Nat Commun. 7, 12178) uses Rluc8-tagged GPR84 and Renilla GFP (rGFP) attached to the FYVE domain from human endofin/zinc finger FYVE domain-containing protein 16, which binds phosphatidylinositol 3-phosphate in EEs. Agonist stimulation of GPR84-Rluc8 leads to trafficking of the receptor to EEs, and ensuing increase of the donor concentration relative to the rGFP-FYVE acceptor anchored in the same cellular compartment, and thus results in an increase in BRET signal.
Plasmids—The cDNA clones for human GPR84 receptor, human Gai2, GB1, and Gy2 were obtained from the cDNA Resource Center (www.cdna.org). GFP10 (F64L, S147P, S202F and H231L variant of Aequorea victoria Green Fluorescent Protein) gBlocks gene fragments (Integrated DNA Technologies, IA) and linker were inserted in frame at the N-terminus of human Gy2. Rluc8 (A55T, C124A, S130A, K136R, A143M, M185V, M253L, and S287L variant of the Renilla reniformis luciferase) gBlocks gene fragment was inserted with linkers in frame in between residues 91 and 92 of Gai2 or at the C-terminus of GPR84. The FYVE domain from human endofin (residues Q739 to K806) attached in frame at the C terminus of a humanized Renilla GFP (rGFP), were synthesized as gBlocks gene fragments.
Bioluminescence Resonance Energy Transfer (BRET) Measurement-HEK293 cells were transfected with GPR84-Rluc8 and rGFP-FYVE for the EEs trafficking biosensor or with GPR84, Gai2-Rluc8, GFP10-Gy2, and GB1 for the Ga; biosensor. The following day, transiently transfected cells were seeded in 96-well white clear bottom microplates coated with poly-D-lysine and left in culture for 24 hours. Cells were washed once with Tyrode's buffer (140 mmol/L NaCl, 1 mmol/L CaCl2), 2.7 mmol/L KCl, 0.49 mmol/L MgCl2, 0.37 mmol/L NaH2PO4, 5.6 mmol/L glucose, 12 mmol/L NaHCO3, and 25 mmol/L HEPES, pH 7.5) before performing assays in Tyrode's buffer. Test compounds were incubated with cells for 5 (Gai) or 15 (EEs) minutes at 37° C. before addition of 200 nmol/L of the GPR84 agonist ZQ-16 (2-(Hexylthio)-6-hydroxy-4 (3H)-pyrimidinone) for 5 minutes at room temperature (Gai) or 30 minutes at 37° C. (EEs). The Rluc8 substrate coelenterazine 400A (Prolume, Lakeside, A Z) was added at a final concentration of 5 μmol/L and BRET readings were collected using an Infinite M1000 microplate reader (Tecan, Morrisville, N C). BRET2 readings between Rluc8 and GFP10 or rGFP were collected by sequential integration of the signals detected in the 370 to 450 nm (Rluc8) and 510 to 540 nm (GFP10, rGFP) windows. The BRET signal was calculated as the ratio of light emitted by acceptor (GFP10, rGFP) over the light emitted by donor (Rluc8). The values were corrected to net BRET by subtracting the background BRET signal obtained in cells transfected with Rluc8 constructs alone. Ligand-promoted net BRET values were calculated by subtracting vehicle-induced net BRET from ligand-induced net BRET.

T1 sequence (Q9NQS5 whole entry): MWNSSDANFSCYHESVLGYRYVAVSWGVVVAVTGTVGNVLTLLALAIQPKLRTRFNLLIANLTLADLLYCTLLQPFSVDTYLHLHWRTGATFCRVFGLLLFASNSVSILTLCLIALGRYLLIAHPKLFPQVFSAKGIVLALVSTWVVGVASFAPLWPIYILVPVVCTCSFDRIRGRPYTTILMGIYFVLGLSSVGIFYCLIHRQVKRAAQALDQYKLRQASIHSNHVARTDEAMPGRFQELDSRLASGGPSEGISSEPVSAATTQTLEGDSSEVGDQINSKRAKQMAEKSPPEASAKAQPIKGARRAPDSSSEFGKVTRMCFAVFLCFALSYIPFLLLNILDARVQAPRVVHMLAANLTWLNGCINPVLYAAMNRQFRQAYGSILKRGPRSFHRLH

SMILES	inhibition at 10 µM [%]	IC50 [nM]	inhibition at 2 µM [%]
Cc1cc(OCS(=O)(=O)N(C)C)cc(=O)n1[C@H](C)c1ccc(C#CC2CC2)cc1 [Compound I-41]	50 to 75		
Cc1cc(OCC(=O)N(C)C2CC2)cc(=O)n1[C@H](C)c1ccc(C#CC2CC2)cc1 [Compound I-42]	> 75	≤ 300	
Cc1cc(OCC(=O)NC2CCN(C)CC2)cc(=O)n1[C@H](C)c1ccc(C#CC2CC2)cc1 [Compound I-43]	50 to 75		
Cc1cc(OCC(=O)N(C)C2CCN(C)CC2)cc(=O)n1[C@H](C)c1ccc(C#CC2CC2)cc1 [Compound I-44]			> 75
CNS(=O)(=O)COc1cc(C)n([C@H](C)c2ccc(C#CC3CC3)c(F)c2)c(=O)c1 [Compound I-45]	50 to 75	300 to 1000	
Cc1cc(OCS(N)(=O)=O)cc(=O)n1[C@H](C)c1ccc(C#CC2CC2)c(F)c1 [Compound I-46]	> 75		
CNS(=O)(=O)COc1cc(C)n([C@H](C)c2ccc(C#CC3CC3)cc2)c(=O)c1 [Compound I-47]	50 to 75		
Cc1cc(OCS(N)(=O)=O)cc(=O)n1[C@H](C)c1ccc(C#CC2CC2)cc1 [Compound I-48]	> 75		
Cc1cc(OCC(=O)NCC(C)C)cc(=O)n1[C@H](C)c1ccc(C#CC2CC2)cc1 [Compound I-49]	> 75		
Cc1cc(OCC(=O)NC2CC2)cc(=O)n1[C@H](C)c1ccc(C#CC2CC2)cc1 [Compound I-50]	> 75	300 to 1000	
Cc1cc(OCC(=O)NC2CC(F)(F)C2)cc(=O)n1[C@H](C)c1ccc(C#CC2CC2)cc1 [Compound I-51]	50 to 75		
Cc1cc(OCC(=O)NC2COC2)cc(=O)n1[C@H](C)c1ccc(C#CC2CC2)cc1 [Compound I-52]	50 to 75		
Cc1cc(OCc2ncccn2)cc(=O)n1[C@H](C)c1ccc(C#CC2(C(F)(F)F)CC2)c(F)c1 [Compound I-53]	50 to 75		
Cc1cc(OCC(=O)NC(C)C)cc(=O)n1[C@H](C)c1ccc(C#CC2CC2)cc1 [Compound I-54]	> 75		
Cc1cc(OCC(=O)N(C)C(C)C)cc(=O)n1[C@H](C)c1ccc(C#CC2CC2)cc1 [Compound I-55]	> 75	≤ 300	
Cc1cc(OCC(=O)N(C)C)cc(=O)n1[C@H](C)c1ccc(C#CC2(C(F)(F)F)CC2)cc1 [Compound I-56]	> 75	≤ 300	
Cc1cc(OCC(=O)N(C)C2CCOCC2)cc(=O)n1[C@H](C)c1ccc(C#CC2CC2)cc1 [Compound I-57]		≤ 300	> 75
Cc1cc(OCC(=O)NC2CN(C)C2)cc(=O)n1[C@H](C)c1ccc(C#CC2CC2)cc1 [Compound I-58]	50 to 75		
Cc1cc(OCC(=O)N(C)C2CN(C)C2)cc(=O)n1[C@H](C)c1ccc(C#CC2CC2)cc1 [Compound I-59]	> 75		
Cc1cc(OCC(=O)N2CCN(C)CC2)cc(=O)n1[C@H](C)c1ccc(C#CC2CC2)cc1 [Compound I-60]	> 75	≤ 300	
Cc1cc(OCC(=O)N2CCNCC2)cc(=O)n1[C@H](C)c1ccc(C#CC2CC2)cc1 [Compound I-61]	> 75		
Cc1cc(OCc2ncccn2)cc(=O)n1[C@H](C)c1ccc(C#CC2CC2(F)F)cc1 (stereo partly drawn) [Compound I-62]	50 to 75		
Cc1cc(OCC(=O)N(C)C)cc(=O)n1[C@H](C)c1ccc(C#CC2CC2(F)F)cc1 (stereo partly drawn) [Compound I-63]	> 75	≤ 300	
Cc1cc(OCC(=O)N(C)C)cc(=O)n1[C@H](C)c1ccc(C#CC2CC2(F)F)c(F)c1 (stereo partly drawn) [Compound I-64, 2-((1-((1R)-1-(4-((2,2-difluorocyclopropyl)ethynyl)-3-fluorophenyl)ethyl)-6-methyl-2-oxo-1,2-dihydropyridin-4-yl)oxy)-N,N-dimethylacetamide]	> 75	≤ 300	

Results, then the molecule that gave them:

inhibition at 10 µM [%]	IC50 [nM]	inhibition at 2 µM [%]	SMILES
> 75	≤ 300		Cc1cc(OCC(=O)N(C)CC(C)C)cc(=O)n1[C@H](C)c1ccc(C#CC2CC2)cc1 [Compound I-65]
50 to 75	300 to 1000		Cc1cc(OCC(=O)NC2CCOCC2)cc(=O)n1[C@H](C)c1ccc(C#CC2CC2)cc1 [Compound I-66]
> 75	300 to 1000		Cc1cc(OCC(=O)N(C)C2CC(F)(F)C2)cc(=O)n1[C@H](C)c1ccc(C#CC2CC2)cc1 [Compound I-67]
> 75	≤ 300		Cc1nc(OCC(=O)N(C)C2COC2)cc(=O)n1[C@H](C)c1ccc(C#CC2CC2)cc1 [Compound I-68]
25 to 50			Cc1cc(OCC(=O)NC2CNC2)cc(=O)n1[C@H](C)c1ccc(C#CC2CC2)cc1 [Compound I-69]
> 75	300 to 1000		Cc1cc(OCc2ncccc2C(F)(F)F)cc(=O)n1[C@H](C)c1ccc(C#CC2CC2)cc1 [Compound I-71]
> 75	300 to 1000		Cc1cc(OCC(=O)N(C)C)cc(=O)n1[C@H](C)c1ccc(C#CC2CC2)c(O)c1 [Compound I-72]
	≤ 300	> 75	[2H]C1(C#Cc2ccc([C@@H](C)n3c(C)cc(OCC(=O)N(C)C)cc3=O)cc2)CC1 [Compound I-73]
25 to 50			CC#CC#Cc1ccc([C@@H](C)n2c(C)cc(OCc3ncccn3)cc2=O)cc1 [Compound I-74]
< 25			Cc1cc(OCc2ncccn2)cc(=O)n1[C@H](C)c1ccc(C#CC#CC2CC2)cc1 [Compound I-75]
	≤ 300	> 75	Cc1cc(OCc2ncc(NS(=O)(=O)C(F)(F)F)cn2)cc(=O)n1[C@H](C)c1ccc(C#CC2CC2)cc1 [Compound I-76]
50 to 75			Cc1cc(OCc2ncccn2)cc(=O)n1[C@H](C)c1ccc(C#CC2(C)CC2)cc1 [Compound I-77]
> 75			Cc1cc(OCC(=O)N(C)C2CNC2)cc(=O)n1[C@H](C)c1ccc(C#CC2CC2)cc1 [Compound I-78]
> 75			Cc1cc(OCC(=O)N2CC3(CCN(C)CC3)C2)cc(=O)n1[C@H](C)c1ccc(C#CC2CC2)cc1 [Compound I-79]
> 75	≤ 300		Cc1cc(OCC(=O)N(C)C)cc(=O)n1[C@H](C)c1ccc(C#CC2(C)CC2)cc1 [Compound I-80]
> 75	≤ 300		Cc1cc(OCc2cnc(NS(C)(=O)=O)nc2)cc(=O)n1[C@H](C)c1ccc(C#CC2CC2)cc1 [Compound I-81]
	≤ 300	> 75	Cc1cc(OCc2cnc(NS(=O)(=O)C(F)(F)F)nc2)cc(=O)n1[C@H](C)c1ccc(C#CC2CC2)cc1 [Compound I-82]
50 to 75			Cc1cc(OCC(N(C)C)C(F)(F)F)cc(=O)n1[C@H](C)c1ccc(C#CC2CC2)c(F)c1 (stereo partly drawn) [Compound I-85]
50 to 75			Cc1cc(OCC(N(C)C)C(F)(F)F)cc(=O)n1[C@H](C)c1ccc(C#CC2CC2)cc1 (stereo partly drawn) [Compound I-86]
50 to 75			Cc1cc(OCC(=O)N(C)C)cc(=O)n1[C@H](C)c1ccc(C#CC2CC2)cc1Br [Compound I-87]
> 75	300 to 1000		Cc1cc(OCC(=O)N2CCCC2)cc(=O)n1[C@H](C)c1ccc(C#CC2(C)CC2)cc1 [Compound I-88]
